Measured values from US7368462B1, “Melanin concentrating hormone antagonists” (The Procter & Gamble Company, priority 2004, dated 2008).
pIC50: −log10 of the molar value.

Columns and labels:
MCH1R = MCH1R (UniProt Q99705); assay: MCH1R competition binding assay
Procedure: In vitro binding and function assays are performed on membranes derived from cells or tissues expressing endogenous MCH1R. Competition binding assays are performed to identify high affinity compounds. Briefly, either radiolabeled or europium labeled MCH with varying concentrations of competitor compound which are incubated with membranes expressing the receptor. Rat brain membrane or cell lines, including but not limited to human Kelly neuroblastoma cells, A-431 epidermoid cells, and rat PC-12 cells are known to express endogenous MCH1R and are used in the assay. Binding is allowed to proceed until equilibrium is reached then bound labeled MCH is separated from free MCH by capturing membranes onto a filter. The filters are washed to remove loosely associated MCH and labeled MCH is quantified. Data is analyzed and IC50 and Ki are calculated to determine compound affinity.

5-HT2c receptor = molecular target: T1, 5-HT2c receptor (Homo sapiens, UniProt P28335); assay: 5-HT2c receptor binding assay (3H-mesulergine competition)
T1 sequence (P28335 33-458): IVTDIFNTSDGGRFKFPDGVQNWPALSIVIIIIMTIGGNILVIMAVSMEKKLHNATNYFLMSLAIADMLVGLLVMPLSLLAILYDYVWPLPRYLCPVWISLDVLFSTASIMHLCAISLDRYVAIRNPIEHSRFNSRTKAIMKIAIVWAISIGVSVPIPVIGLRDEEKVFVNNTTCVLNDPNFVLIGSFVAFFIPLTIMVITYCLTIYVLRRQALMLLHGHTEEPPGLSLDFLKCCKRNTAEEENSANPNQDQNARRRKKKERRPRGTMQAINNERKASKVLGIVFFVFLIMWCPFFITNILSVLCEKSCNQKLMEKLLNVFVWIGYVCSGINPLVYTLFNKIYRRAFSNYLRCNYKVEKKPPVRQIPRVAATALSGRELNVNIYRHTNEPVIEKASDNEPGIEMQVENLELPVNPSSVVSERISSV
Procedure: Binding assays for serotonin receptor, 5-HT2c receptor MCH antagonist compounds are evaluated for binding to the serotonin 5-HT2c receptor to determine receptor selectivity. Binding activity is assessed using a competitive assay with ^3H-mesulergine (Perkin Elmer), a 5-HT2c selective ligand, on membrane containing the 5-HT2c receptor. Briefly, 1 nM ^3H-mesulergine and varying concentrations of the compound are incubated with 5-HT2c receptor membranes, following an incubation period, the membranes are washed and ^3H-mesulergine bound to membranes is measured in a liquid scintillation counter. The amount of bound ^3H-mesulergine at the varying concentration of competitor compound is used to derive the affinity (Ki) of the compound for the 5-HT2c receptor. 5-HT2c receptor containing membranes are readily available from several companies including Perkin-Elmer and Euroscreen.

Compound | pIC50 (MCH1R) | pIC50 (5-HT2c receptor)
CCN(CC)Cc1ccc2c(CN(C)C(=O)c3ccc(-c4ccc(C(F)(F)F)cc4)cc3)cccc2c1 [4′-Trifluoromethyl-biphenyl-4-carboxylic acid (6-diethylaminomethyl-naphthalen-1-ylmethyl)-methyl-amide] | 7.15 | 5.69
CN(C)Cc1ccc2c(CNC(=O)c3ccc(-c4ccc(F)cc4)cc3)cccc2c1 [4′-Fluoro-biphenyl-4-carboxylic acid (6-dimethylaminomethyl-naphthalen-1-ylmethyl)-amide] | 7.92 | 5.95
